Results from ChEMBL document CHEMBL1201862, “PubChem BioAssay data set” (2004).
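Grown in 96-well plates, cells were treated for 48 hours with each compound at five concentrations. Insufficient inhibition: endpoint recorded as highest concentration tested. Abbreviation: GI50, concentration required for 50% inhibition of growth.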 Activity calls are given as the source filed them. Rule as the data show it: active = GI50 up to about 1.1 µM and inactive = higher.

Legend:
Assay in all cases: NCI-60 cell line screen, 48 h
SF-268 = system: SF-268
LOX IMVI = system: LOX IMVI
RPMI-8226 = system: RPMI-8226
U-251 = system: U-251
SK-MEL-28 = system: SK-MEL-28
EKVX = system: EKVX
KM12 = system: KM12
SNB-19 = system: SNB-19
SK-MEL-2 = system: SK-MEL-2
T47D = system: T47D
MCF7 = system: MCF7
Malme-3M = system: Malme-3M
DU-145 = system: DU-145
PC-3 = system: PC-3
786-0 = system: 786-0
HCT-15 = system: HCT-15
IGROV-1 = system: IGROV-1
CAKI-1 = system: CAKI-1
SK-MEL-5 = system: SK-MEL-5
UO-31 = system: UO-31

Compound: Cc1c(C#N)c2nnn(-c3cccc(Cl)c3)c(=O)n2c1-c1ccccc1
- GI50 (SF-268): 6.81 µM (inactive)
- GI50 (LOX IMVI): 7.5 µM (inactive)
- GI50 (RPMI-8226): 0.637 µM (active)
- GI50 (U-251): 2.33 µM (inactive)
- GI50 (SK-MEL-28): 32.3 µM (inactive)
- GI50 (EKVX): 5.69 µM (inactive)
- GI50 (KM12): 0.895 µM (active)
- GI50 (SNB-19): 10.3 µM (inactive)
- GI50 (SK-MEL-2): 1.27 µM (inactive)
- GI50 (T47D): 4.25 µM (inactive)
- GI50 (MCF7): 4.02 µM (inactive)
- GI50 (Malme-3M): 9.48 µM (inactive)
- GI50 (DU-145): 3.46 µM (inactive)
- GI50 (PC-3): 0.875 µM (active)
- GI50 (786-0): 2.99 µM (inactive)
- GI50 (HCT-15): 3.83 µM
- GI50 (IGROV-1): 2.54 µM (inactive)
- GI50 (CAKI-1): 6.62 µM (inactive)
- GI50 (SK-MEL-5): 3.84 µM (inactive)
- GI50 (UO-31): 8.97 µM (inactive)

Compound: ClC(Cl)(Cl)C1=N[C@H]2[C@H](Br)[C@@H]3O[C@@H](c4ccccc4)[C@H](c4ccccc4)O[C@@H]3[C@H]2O1
- GI50 (SF-268): 18.4 µM (inactive)
- GI50 (LOX IMVI): 17.1 µM (inactive)
- GI50 (RPMI-8226): 16.2 µM (inactive)
- GI50 (U-251): 17.1 µM (inactive)
- GI50 (SK-MEL-28): 20.3 µM (inactive)
- GI50 (EKVX): 26.2 µM (inactive)
- GI50 (KM12): 20.1 µM (inactive)
- GI50 (SNB-19): 27.4 µM (inactive)
- GI50 (SK-MEL-2): 16.2 µM (inactive)
- GI50 (T47D): 30.2 µM (inactive)
- GI50 (MCF7): 17.3 µM (inactive)
- GI50 (Malme-3M): 19.2 µM (inactive)
- GI50 (DU-145): 26.5 µM (inactive)
- GI50 (PC-3): 16 µM (inactive)
- GI50 (786-0): 21.4 µM (inactive)
- GI50 (HCT-15): 27.2 µM
- GI50 (IGROV-1): 15.3 µM (inactive)
- GI50 (CAKI-1): 16 µM (inactive)
- GI50 (SK-MEL-5): 17.3 µM (inactive)
- GI50 (UO-31): 20.7 µM (inactive)

Compound: CCOc1cc2c(cc1O)C(=O)C[C@@H]1[C@@H]2CC[C@]2(C)[C@@H](O)CC[C@@H]12
- GI50 (SF-268): 0.308 µM (active)
- GI50 (LOX IMVI): 0.189 µM (active)
- GI50 (RPMI-8226): 0.154 µM (active)
- GI50 (U-251): 0.173 µM (active)
- GI50 (SK-MEL-28): 0.19 µM (active)
- GI50 (EKVX): 10.1 µM (inactive)
- GI50 (KM12): 2.69 µM (inactive)
- GI50 (SNB-19): 0.189 µM (active)
- GI50 (SK-MEL-2): 4.85 µM (inactive)
- GI50 (T47D): 0.13 µM (active)
- GI50 (MCF7): 0.132 µM (active)
- GI50 (Malme-3M): 0.294 µM (active)
- GI50 (DU-145): 0.337 µM (active)
- GI50 (PC-3): 2.71 µM (inactive)
- GI50 (786-0): 0.177 µM (active)
- GI50 (HCT-15): 0.0556 µM
- GI50 (IGROV-1): 0.861 µM (active)
- GI50 (CAKI-1): 0.164 µM (active)
- GI50 (SK-MEL-5): 0.0634 µM (active)
- GI50 (UO-31): 0.482 µM (active)

Compound: C=C(C)[C@@H]1CC[C@]2(C(=O)OC3OC(COC4OC(CO)C(OC5OC(C)C(O)C(O)C5O)C(O)C4O)C(O)C(O)C3O)CC[C@]3(C)[C@H](CC[C@@H]4[C@@]5(C)CC[C@H](O)[C@@](C)(CO)[C@@H]5CC[C@]43C)[C@@H]12 (stereo not given in full)
- GI50 (SF-268): 2.93 µM (inactive)
- GI50 (LOX IMVI): 2.58 µM (inactive)
- GI50 (RPMI-8226): 0.929 µM (active)
- GI50 (U-251): 1.64 µM (inactive)
- GI50 (SK-MEL-28): 5.79 µM (inactive)
- GI50 (EKVX): 2.2 µM (inactive)
- GI50 (KM12): 0.625 µM (active)
- GI50 (SNB-19): 2.72 µM (inactive)
- GI50 (SK-MEL-2): 2.39 µM (inactive)
- GI50 (T47D): 3.4 µM (inactive)
- GI50 (MCF7): 3.02 µM (inactive)
- GI50 (Malme-3M): 3.78 µM (inactive)
- GI50 (DU-145): 4.8 µM (inactive)
- GI50 (PC-3): 2.6 µM (inactive)
- GI50 (786-0): 3.98 µM (inactive)
- GI50 (HCT-15): 2.39 µM
- GI50 (IGROV-1): 2.74 µM (inactive)
- GI50 (CAKI-1): 3.4 µM (inactive)
- GI50 (SK-MEL-5): 2.84 µM (inactive)
- GI50 (UO-31): 3.93 µM (inactive)

Compound: N#CSc1ccc(S(N)(=O)=O)cc1
- GI50 (SF-268): > 100 µM (inactive)
- GI50 (LOX IMVI): 31.3 µM (inactive)
- GI50 (RPMI-8226): 26.5 µM (inactive)
- GI50 (U-251): 17.4 µM (inactive)
- GI50 (SK-MEL-28): 76.7 µM (inactive)
- GI50 (EKVX): > 100 µM (inactive)
- GI50 (KM12): > 100 µM (inactive)
- GI50 (SNB-19): > 100 µM (inactive)
- GI50 (SK-MEL-2): 46.5 µM (inactive)
- GI50 (T47D): 31.8 µM (inactive)
- GI50 (MCF7): 35.6 µM (inactive)
- GI50 (Malme-3M): 83.6 µM (inactive)
- GI50 (DU-145): > 100 µM (inactive)
- GI50 (PC-3): 48 µM (inactive)
- GI50 (786-0): 26.1 µM (inactive)
- GI50 (HCT-15): 40.4 µM
- GI50 (IGROV-1): 49.7 µM (inactive)
- GI50 (CAKI-1): 56.5 µM (inactive)
- GI50 (SK-MEL-5): 75.2 µM (inactive)
- GI50 (UO-31): 19.4 µM (inactive)

Compound: COC(=O)[C@]12CCC(C)(C)C[C@H]1[C@H]1C(=O)C=C3[C@@]4(C)C=C(C#N)C(=O)C(C)(C)[C@@H]4CC[C@@]3(C)[C@]1(C)CC2 [BARDOXOLONE METHYL]
- GI50 (SF-268): 0.0238 µM (active)
- GI50 (LOX IMVI): 0.0129 µM (active)
- GI50 (RPMI-8226): < 0.0104 µM (active)
- GI50 (U-251): 0.0232 µM (active)
- GI50 (SK-MEL-28): 0.0759 µM (active)
- GI50 (EKVX): 0.0395 µM (active)
- GI50 (KM12): 0.0163 µM (active)
- GI50 (SNB-19): 0.0408 µM (active)
- GI50 (SK-MEL-2): 0.027 µM (active)
- GI50 (T47D): 0.0288 µM (active)
- GI50 (MCF7): < 0.0107 µM (active)
- GI50 (Malme-3M): 0.0667 µM (active)
- GI50 (DU-145): 0.0239 µM (active)
- GI50 (PC-3): 0.0165 µM (active)
- GI50 (786-0): 0.0279 µM (active)
- GI50 (HCT-15): 0.0178 µM
- GI50 (IGROV-1): 0.0405 µM (active)
- GI50 (CAKI-1): 0.0273 µM (active)
- GI50 (SK-MEL-5): 0.0286 µM (active)
- GI50 (UO-31): 0.0818 µM (active)
